Results reported in US10131652B2, “Pyrimidinyloxy benzene derivatives as herbicides” (E. I. DU PONT DE NEMOURS AND COMPANY, priority 2014, dated 2018).
Read-outs that look alike come from different tables or passages of the source.

Columns and labels:
Format in all cases: in vivo
[1] = tested on: ragweed (common ragweed, Ambrosia elatior); assay: Test B pre-/postemergence plant response
Method in brief: (§1)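 Evaluation is visual, about 10 days after application, rating injury from 0 (none) to 100 (complete control) relative to untreated controls. Application was a preemergence soil spray on seeded pots or a postemergence spray on one- to two-leaf plants.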

[2] = tested on: barnyardgrass (Echinochloa crus-galli); assay: Test B pre-/postemergence plant response; conditions: for pest or weed control at 500 g/ha: 500 g ai/ha
Method in brief: as §1

[3] = tested on: giant foxtail (Setaria faberii); assay: Test B pre-/postemergence plant response; conditions: for pest or weed control at 500 g/ha: 500 g ai/ha
Method in brief: as §1

kochia (Kochia scoparia) = assay: Test B pre-/postemergence plant response
Method in brief: as §1

corn (Zea mays) = assay: Test B pre-/postemergence plant response
Method in brief: as §1

[4] = tested on: pigweed (Amaranthus retroflexus); assay: Test B pre-/postemergence plant response; conditions: for pest or weed control at 500 g/ha: 500 g ai/ha
Method in brief: as §1

[5] = tested on: wheat (Triticum aestivum); assay: Test B pre-/postemergence plant response
Method in brief: as §1

[6] = tested on: Italian ryegrass (Lolium multiflorum); assay: Test B pre-/postemergence plant response
Method in brief: as §1

[7] = tested on: blackgrass (Alopecurus myosuroides); assay: Test B postemergence plant response
Method in brief: (§2)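 Values are visual control ratings (0 to 100) recorded approximately 10 days after postemergence application to greenhouse-grown plants of 2 to 10 cm, one- to two-leaf stage, each judged against untreated controls.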

[8] = tested on: galium (catchweed bedstraw, Galium aparine); assay: Test B postemergence plant response
Method in brief: as §2

[9] = tested on: barnyardgrass (Echinochloa crus-galli); assay: Test C flooded paddy test plant response; conditions: Flood, 250 g ai/ha, scale of 0 to 100 where 0 is no effect and 100 is complete control, 13 to 15 days
Method in brief: (§3)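 Two-leaf stage → flood to 3 cm → compound into water → hold depth, greenhouse 13–15 d → visual score vs controls (0 none, 100 complete control).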

[10] = tested on: small-flower umbrella sedge (Cyperus difformis); assay: Test C flooded paddy test plant response; conditions: Flood, 250 g ai/ha, scale of 0 to 100 where 0 is no effect and 100 is complete control, 13 to 15 days
Method in brief: as §3

[11] = tested on: ducksalad (Heteranthera limosa); assay: Test C flooded paddy test plant response; conditions: Flood, 250 g ai/ha, scale of 0 to 100 where 0 is no effect and 100 is complete control, 13 to 15 days
Method in brief: as §3

rice (Oryza sativa) = assay: Test C flooded paddy test plant response; conditions: Flood, 250 g ai/ha, scale of 0 to 100 where 0 is no effect and 100 is complete control, 13 to 15 days
Method in brief: as §3

[12] = 31 g ai/ha, Preemergence, 0 to 100 scale where 0 is no effect and 100 is complete control
[13] = 125 g ai/ha, postemergence, 0 to 100 scale, 0 no effect, 100 complete control
[14] = Postemergence, 31 g ai/ha, 0 to 100 scale (0 no effect, 100 complete control)
[15] = Preemergence, 125 g ai/ha, 0 to 100 scale (0 no effect, 100 complete control)
[16] = 31 g ai/ha, Postemergence, 0 to 100 scale, 0 no effect, 100 complete control
[17] = Preemergence, 125 g ai/ha, 0 to 100 scale where 0 is no effect and 100 is complete control
[18] = Postemergence, 500 g ai/ha, 0 to 100 scale (0 no effect, 100 complete control)
[19] = Preemergence, 500 g ai/ha, 0 to 100 scale where 0 is no effect and 100 is complete control

CC(C)(F)c1cc(-c2ccccc2Oc2ncc(Cl)cn2)no1 [Compound 236]
Plant response rating, Ragweed [1, 12]: 0 | Plant response rating, Ragweed [1, 13]: 20 | Plant response rating, Ragweed [1, 14]: 0 | Ragweed plant response rating [1, 15]: 0 | Plant response rating, Barnyardgrass [2, 12]: 10 | Plant response rating, Barnyardgrass [2, 13]: 30 | Plant response rating, Barnyardgrass [2, 14]: 0 | Barnyardgrass plant response rating [2, 15]: 80 | Plant response rating, Foxtail, Giant [3, 12]: 10 | Plant response rating, Foxtail, Giant [3, 13]: 30 | Plant response rating, Foxtail, Giant [3, 14]: 0 | Foxtail, Giant plant response rating [3, 15]: 90 | Plant response rating, Kochia (kochia (Kochia scoparia); [12]): 30 | Plant response rating, Kochia (kochia (Kochia scoparia); [13]): 90 | Plant response rating, Kochia (kochia (Kochia scoparia); [14]): 20 | Kochia plant response rating (kochia (Kochia scoparia); [15]): 100 | Plant response rating, Corn (corn (Zea mays); [13]): 30 | Plant response rating, Corn (corn (Zea mays); [14]): 0 | Plant response rating, Pigweed [4, 12]: 60 | Plant response rating, Pigweed [4, 13]: 70 | Plant response rating, Pigweed [4, 14]: 30 | Pigweed plant response rating [4, 15]: 100 | Plant response rating, Wheat [5, 13]: 20 | Plant response rating, Wheat [5, 14]: 0 | Plant response rating, Ryegrass, Italian [6, 12]: 0 | Plant response rating, Ryegrass, Italian [6, 13]: 20 | Plant response rating, Ryegrass, Italian [6, 14]: 0 | Ryegrass, Italian plant response rating [6, 15]: 30 | Plant response rating, Blackgrass [7, 13]: 40 | Plant response rating, Blackgrass [7, 14]: 20 | Plant response rating, Galium [8, 13]: 100 | Plant response rating, Galium [8, 14]: 30 | Barnyardgrass plant response rating [9]: 0 | Sedge, Umbrella plant response rating [10]: 40 | Ducksalad plant response rating [11]: 75 | Rice plant response rating (rice (Oryza sativa)): 0

COc1cccc(Oc2ncc(Cl)cn2)c1-c1cc(C)no1 [Compound 110]
Plant response rating, Ragweed [1, 16]: 30 | Plant response rating, Ragweed [1, 12]: 0 | Plant response rating, Ragweed [1, 13]: 40 | Plant response rating, Barnyardgrass [2, 16]: 0 | Plant response rating, Barnyardgrass [2, 12]: 0 | Plant response rating, Barnyardgrass [2, 13]: 50 | Plant response rating, Barnyardgrass [2, 17]: 40 | Plant response rating, Foxtail, Giant [3, 16]: 0 | Plant response rating, Foxtail, Giant [3, 12]: 0 | Plant response rating, Foxtail, Giant [3, 13]: 70 | Plant response rating, Foxtail, Giant [3, 17]: 70 | Plant response rating, Kochia (kochia (Kochia scoparia); [16]): 10 | Plant response rating, Kochia (kochia (Kochia scoparia); [12]): 0 | Plant response rating, Kochia (kochia (Kochia scoparia); [13]): 50 | Plant response rating, Kochia (kochia (Kochia scoparia); [17]): 0 | Plant response rating, Corn (corn (Zea mays); [16]): 0 | Plant response rating, Corn (corn (Zea mays); [13]): 10 | Plant response rating, Pigweed [4, 16]: 10 | Plant response rating, Pigweed [4, 12]: 10 | Plant response rating, Pigweed [4, 13]: 30 | Plant response rating, Wheat [5, 16]: 0 | Plant response rating, Wheat [5, 13]: 0 | Plant response rating, Ryegrass, Italian [6, 16]: 0 | Plant response rating, Ryegrass, Italian [6, 12]: 0 | Plant response rating, Ryegrass, Italian [6, 13]: 0 | Plant response rating, Blackgrass [7, 16]: 0 | Plant response rating, Blackgrass [7, 13]: 40 | Plant response rating, Galium [8, 16]: 20 | Plant response rating, Galium [8, 13]: 70 | Barnyardgrass plant response rating [9]: 0 | Sedge, Umbrella plant response rating [10]: 60 | Ducksalad plant response rating [11]: 30 | Rice plant response rating (rice (Oryza sativa)): 0

FC(F)(F)c1ccc(-c2c(Cl)cccc2Oc2ncc(Cl)cn2)nc1 [Compound 160, 5-chloro-2-[2-[5-(trifluoromethyl)-2-pyridinyl]-3-chlorophenoxy]pyrimidine]
Plant response rating, Ragweed [1, 13]: 0 | Plant response rating, Ragweed [1, 18]: 30 | Ragweed plant response rating [1, 15]: 0 | Plant response rating, Ragweed [1, 19]: 0 | pest or weed control at 125 g/ha ([2]; Echinochloa crus-galli, post-emergence, 240 h, 125 g ai/ha, postemergence, 0 to 100 scale, 0 no effect, 100 complete control, read-out: Plant response rating, Barnyardgrass): 0% | pest or weed control at 500 g/ha ([2]; Echinochloa crus-galli, post-emergence, 240 h, Postemergence, 0 to 100 scale (0 no effect, 100 complete control), read-out: Plant response rating, Barnyardgrass): 80% | pest or weed control at 500 g/ha ([2]; Echinochloa crus-galli, pre-emergence, 240 h, Preemergence, 0 to 100 scale where 0 is no effect and 100 is complete control, read-out: Plant response rating, Barnyardgrass): 80% | Barnyardgrass plant response rating [2, 15]: 0 | Foxtail, Giant plant response rating [3, 15]: 50 | pest or weed control at 125 g/ha ([3]; Setaria faberi, post-emergence, 240 h, 125 g ai/ha, postemergence, 0 to 100 scale, 0 no effect, 100 complete control, read-out: Plant response rating, Foxtail, Giant): 30% | pest or weed control at 500 g/ha ([3]; Setaria faberi, post-emergence, 240 h, Postemergence, 0 to 100 scale (0 no effect, 100 complete control), read-out: Plant response rating, Foxtail, Giant): 100% | pest or weed control at 500 g/ha ([3]; Setaria faberi, pre-emergence, 240 h, Preemergence, 0 to 100 scale where 0 is no effect and 100 is complete control, read-out: Plant response rating, Foxtail, Giant): 100% | Plant response rating, Kochia (kochia (Kochia scoparia); [13]): 40 | Plant response rating, Kochia (kochia (Kochia scoparia); [18]): 90 | Kochia plant response rating (kochia (Kochia scoparia); [15]): 30 | Plant response rating, Kochia (kochia (Kochia scoparia); [19]): 90 | Corn plant response rating (crop injury, 0 = no effect, 100 = complete kill) at 125 g/ha (corn (Zea mays); Zea mays, post-emergence, 240 h, 125 g ai/ha, postemergence, 0 to 100 scale, 0 no effect, 100 complete control): 30% | Corn plant response rating (crop injury, 0 = no effect, 100 = complete kill) at 500 g/ha (corn (Zea mays); Zea mays, post-emergence, 240 h, Postemergence, 500 g ai/ha, 0 to 100 scale (0 no effect, 100 complete control)): 90% | pest or weed control at 125 g/ha ([4]; Amaranthus retroflexus, post-emergence, 240 h, 125 g ai/ha, postemergence, 0 to 100 scale, 0 no effect, 100 complete control, read-out: Plant response rating, Pigweed): 90% | pest or weed control at 500 g/ha ([4]; Amaranthus retroflexus, post-emergence, 240 h, Postemergence, 0 to 100 scale (0 no effect, 100 complete control), read-out: Plant response rating, Pigweed): 100% | pest or weed control at 500 g/ha ([4]; Amaranthus retroflexus, pre-emergence, 240 h, Preemergence, 0 to 100 scale where 0 is no effect and 100 is complete control, read-out: Plant response rating, Pigweed): 100% | Pigweed plant response rating [4, 15]: 90 | plant injury at 125 g/ha ([5]; Triticum aestivum, post-emergence, 240 h, 125 g ai/ha, postemergence, 0 to 100 scale, 0 no effect, 100 complete control, read-out: Plant response rating, Wheat): 20% | plant injury at 500 g/ha ([5]; Triticum aestivum, post-emergence, 240 h, Postemergence, 500 g ai/ha, 0 to 100 scale (0 no effect, 100 complete control), read-out: Plant response rating, Wheat): 80% | Plant response rating, Ryegrass, Italian [6, 13]: 0 | Plant response rating, Ryegrass, Italian [6, 18]: 90 | Ryegrass, Italian plant response rating [6, 15]: 0 | Plant response rating, Ryegrass, Italian [6, 19]: 0 | Plant response rating, Blackgrass [7, 13]: 50 | Plant response rating, Blackgrass [7, 18]: 90 | Plant response rating, Galium [8, 13]: 70 | Plant response rating, Galium [8, 18]: 100 | pest or weed control at 250 g/ha ([9]; Echinochloa crus-galli, read-out: Barnyardgrass plant response rating): 0% | pest or weed control at 250 g/ha ([10]; Cyperus difformis, read-out: Sedge, Umbrella plant response rating): 0% | pest or weed control at 250 g/ha ([11]; Heteranthera limosa, read-out: Ducksalad plant response rating): 0% | plant injury at 250 g/ha (rice (Oryza sativa); Oryza sativa, read-out: Rice plant response rating): 0%
